Columns and labels:
Assay type in all cases: cell-based
3T3-L1 adipocytes [1] = experiment: Glucose uptake assay in 3T3-L1 adipocytes
Description: Chemical synthesis yields both the α- and β-anomers of PGG. (B) Glucose transport stimulatory activity (13, 14) of PGG was assessed by incubating adipocytes in 6-well plates with insulin or PGG for 15 min followed by the addition of [^3H]-2-deoxy-D-glucose for 10 min before quantifying uptake (13, n=3, mean±SD, Two way-ANOVA, * P<0.05; ** P<0.01). α-PGG (●); β-PGG (□); insulin (∘). (C) Glucose transport induced by insulin in the presence of α-PGG. One […] of insulin was added to adipocytes in the presence of increasing amounts of α-PGG. After induction, radioactive glucose was added, and the glucose taken up by the cells was counted.
Reagents, compound synthesis, and glucose uptake assay. Bovine insulin was purchased from Sigma. PGG, in an approximate 1:1 mixture of α- and β-PGG, was synthesized from glucose in the non-radioactive form as described (22). The identity of the compounds was confirmed by MS and NMR. The compounds were dissolved in double distilled water (ddH2O), filter sterilized, and stored as a 10 mM aqueous stock solution at −20° C. The stock solutions were diluted to final concentrations with sterile ddH2O. Glucose uptake assays in 3T3-L1 adipocytes induced by PGG were performed as described (13).

GLUT4 = GLUT4 translocation, confocal microscopy; conditions: adipocytes, 37° C., 15 min
Description: (§1) (A) Glucose transport was measured by determining [^3H]-2-deoxyglucose uptake stimulated by either insulin or α-PGG in 3T3-L1 cells in the presence or absence of HNMPA-(AM)3, an inhibitor of IR tyrosine kinase activity (24); wortmannin, an inhibitor of PI 3-kinase (25), or cytochalasin B, an inhibitor of GLUT4 (26), (n=4, mean±SD). (B) Cells were induced by 20 or 40 μM α-PGG or 100 nM insulin for 15 min. Cell lysates were separated by PAGE and analyzed for phosphorylation of IR (in CHO-IR cells) or Akt (in adipocytes) using antibodies specific to the target proteins. (C) Cells were treated with α-PGG and insulin in a fashion similar to (B) and assayed for their respective PI-3 kinase activity with a radioactive TLC method (27). (D) In similar experiments, intact cells were analyzed by confocal microscopy for translocation of GLUT4 using anti-GLUT4 antibodies.
Protein phosphorylation/activation and GLUT4 translocation. To investigate signal transduction induced by α-PGG, proteins from 3T3-L1 adipocytes or CHO-IR cells (23), which were treated with α-PGG or insulin for 15 min, were isolated, separated by PAGE, blotted on nylon membranes, and analyzed by Western blotting with antibodies against either IR or Akt. […]

3T3-L1 adipocytes [2] = experiment: Glucose uptake assay with insulin signaling pathway inhibitors; conditions: inhibitor added along with α-PGG
Description: as §1
Insulin signaling pathway study with inhibitors. To identify the signaling pathway and its potential protein target for PGG's glucose transport activity, three inhibitors to the insulin signaling pathway were selected. […] Inhibitors were individually added to the 3T3-L1 adipocytes along with either α-PGG or insulin at predetermined concentrations during glucose uptake assays, and the inhibition was measured by the glucose taken in by the cell samples treated with or without inhibitors.

Molecule: O=C(OC[C@H]1O[C@@H](OC(=O)c2cc(O)c(O)c(O)c2)[C@H](OC(=O)c2cc(O)c(O)c(O)c2)[C@@H](OC(=O)c2cc(O)c(O)c(O)c2)[C@@H]1OC(=O)c1cc(O)c(O)c(O)c1)c1cc(O)c(O)c(O)c1 [β-PGG]
- induction of glucose transport (3T3-L1 adipocytes [1]; 3T3-L1 adipocytes, [3H]-2-deoxy-D-glucose uptake, 15 min incubation): induced glucose transport in adipocytes in a dose-dependent manner

Molecule: insulin: Bovine insulin purchased from Sigma
- GLUT4 translocation (GLUT4): translocated to the plasma membrane

Molecule: C=C1[C@@H](C)[C@H]2[C@H](Cc3ccccc3)NC(=O)[C@]23OC(=O)/C=C/[C@H](O)CCC[C@@H](C)C/C=C/[C@H]3[C@@H]1O [cytochalasin B]
- glucose transport activity induced by α-PGG in presence of inhibitor (3T3-L1 adipocytes [2]): completely abolished

Molecule: O=C(OC[C@H]1OC(OC(=O)c2cc(O)c(O)c(O)c2)[C@H](OC(=O)c2cc(O)c(O)c(O)c2)[C@@H](OC(=O)c2cc(O)c(O)c(O)c2)[C@@H]1OC(=O)c1cc(O)c(O)c(O)c1)c1cc(O)c(O)c(O)c1 (stereo partly drawn) [PGG, 1,2,3,4,6-penta-O-galloyl-D-glucose]
- mode of action at IR for glucose transport activity (3T3-L1 adipocytes [1]): partial agonist
